Assay results reported in publication PMC8032764 (Scientific Reports, 2021).
Like-named read-outs stand apart in the source and are kept apart here.

Tests used:
[1] = biological target: human GABAA α5β3γ2 (Homo sapiens, UniProt P18507+P31644); assay: Two-electrode voltage clamp in Xenopus oocytes, current induced by EC10 of GABA; format: cell-based; parameters: expressed in transfected cells; host or cells: Xenopus laevis oocytes, cRNA injection
Description: Freshly prepared oocytes of maturation stage VI were bought from Ecocyte Bioscience (Castrop-Rauxel, Germany) and, after overnight delivery, plated into 96-well plates (Greiner no. 651101) for microinjection on a ROBOOCYTE R16 system (Multichannel Systems MCS GmbH, Reutlingen, Germany). Each oocyte was injected with roughly 50 nL of RNA solution. The solution for expressing receptors composed of the human α1, β2 and γ2 subunits contained 3 pg/nL of α1 and β2 RNA and 15 pg/nL of γ2 RNA. The solution for expressing human α2β3γ2 receptors contained 2.5 pg/nL of α2 and β3 RNA, 5 pg/nL of γ2 RNA and 10 pg/nL of GABARAP RNA. The solution for expressing human α3β3γ2 receptors contained 1.3 pg/nL of α3 and β3 RNA and 6.5 pg/nL of γ2 RNA. The solution for expressing human α5β3γ2 receptors contained 1.3 pg/nL of α5 and β3 RNA and 13 pg/nL of γ2 RNA. […] After the microinjection the oocytes were kept at 20 °C temperature until the electrophysiological experiment. Experiments were done 3 to 5 days later on the ROBOOCYTE instrument which employs the two-microelectrode voltage-clamp technique for membrane voltage control and current measurement. […] During current recording and compound testing the cell membrane was constantly clamped to − 80 mV. Current signals were recorded and stored on a PC-type computer using the ROBOOCYTE software.
(§1) During the microinjection and up to the electrophysiological experiment the oocytes were kept in a solution containing 88 mM NaCl, 1 mM KCl, 2.5 mM NaHCO3, 10 mM HEPES (AppliChem GmbH, Darmstadt, Germany), 0.82 MgSO4, 0.33 mM Ca(NO3)2, 0.33 mM CaCl2, 100 U/mL penicillin (GIBCO, ThermoFisher Scientific) and 100 µg/mL streptomycine (GIBCO, ThermoFisher Scientific). The pH was adjusted to 7.5. During the experiment the voltage-clamped oocyte was constantly superfused by a solution containing 90 mM NaCl, 1 mM KCl, 5 mM HEPES (AppliChem), 1 mM MgCl2 and 1 mM CaCl2 (pH 7.4). GABA and test compounds were added to this solution. GABA concentrations were chosen according to previously determined concentration–response relations for the different human GABAA receptor subunit combinations. Concentrations evoking approximately 10% of a maximal response were selected, i.e., 8 µM for α1β2γ2, 6 µM for α2β3γ2, 10 µM for α3β3γ2 and 5 µM for α5β3γ2. Solutions containing GABA or test compounds were freshly prepared at least every second day. […] Compounds were further diluted in DMSO and finally in extracellular saline to reach a DMSO concentration of 0.1%. The same amount of DMSO was added to the control solutions without test compounds.
During the experiment the solutions were fed into the well containing the voltage-clamped oocyte via Teflon tubings connected by electromagnetic valves which allowed rapid switching between different solutions (controlled by the ROBOCYTE software). Approximately 1–2 min after impaling an oocyte and switching to voltage-clamp mode GABA was applied for 90 s to record a control response. Thereafter the oocyte was washed with saline for 160 s followed by another 90 s GABA application. Then 30 s after the onset of the second GABA application the system switched to a solution containing GABA plus the test compound. Each oocyte was used for testing one concentration of a single test compound (for α5β3γ2: 1 nM: n = 8, 10 nM: n = 8, 100 nM: n = 7, 1000 nM: n = 7).
In this case each GABA application lasted 110 s and the rest period between the two GABA applications was 190 s long.
On each 96-well plate 3–6 oocytes were used for testing a known NAM at the BZD binding site, β-CCM (FG7106), as a positive control. […] Maximally effective concentrations of β-CCM were used for each subunit combination, i.e., 100 nM β-CCM for α1β2γ2, 300 nM for α2β3γ2 or α3β3γ2 and 1 µM for α5β3γ2.

[2] = tested on: male F-344 rats; assay: Social approach avoidance test; settings: positive control, 3 mg/kg p.o., 30 min prior to testing
Description: Experiments on social approach avoidance were performed as described previously by[41] and[14]. A tracking system (Ethovision, Noldus, The Netherlands) was used to analyse each rat’s pathway.

[3] = tested on: male Lister Hooded rats; assay: Diazepam-induced spatial learning impairment in the Morris water maze; format: in vivo, rat; settings: diazepam 6 mg/kg i.p.
Description: The current study used a modified version of the standard acquisition protocol, in which pre-trained rats had to learn to locate a new platform position during six trials on the test day, as described previously. Subjects were semi-randomly divided into treatment groups based on their performance on the last training day. A computer tracking system (HVS Image Ltd, UK) was used to analyse each rat’s swim path on-line.
Latency, pathlength and swim speed (Supplementary Fig. S2) were analysed with a one-factor ANOVA. For the probe trial, to determine whether each treatment group had learned the spatial position of the platform, within-subjects ANOVA was used to compare percent time spent in the platform quadrant with the left, right and opposite quadrants. All significant cases were followed by a post hoc Newman–Keuls test. In addition, a comparison between vehicle treated and diazepam-treated rats on the percent time spent in the platform quadrant was analysed using an unpaired t-test.

[4] = biological target: GABAA α3β3γ2; settings: Table S4a, cited from earlier work
[5] = biological target: GABAA α5β3γ2; settings: cited from earlier work
[6] = biological target: GABAA α2β3γ2; settings: Table S4a, cited from earlier work
[7] = biological target: GABAA α1β3γ2; settings: Table S4a, cited from earlier work
[8] = tested on: Wistar rats; assay: Pentylenetetrazole (PTZ) test; format: in vivo, rat; settings: positive control, 10 mg/kg i.p. 30 min prior to PTZ, p < 0.05
Description: PTZ was prepared in 0.9% saline and was administered s.c. in a volume of 1 mL/kg. The positive control FG7142, a non-selective GABAA receptor NAM, was prepared in 0.3% Tween 80 v/v saline and was administered i.p. in a volume of 1 mL/kg. […] During this period the number of rats showing tonic convulsions was noted.
FG7142 was administered at 10 mg/kg 30 min prior to PTZ. The percent of rats in each dose group showing tonic convulsions was compared to the control group by the Pearson Chi-Square test.

[9] = tested on: T1, human GABAA α2β3γ2; assay: Two-electrode voltage clamp in Xenopus oocytes, current induced by EC10 of GABA; format: cell-based; settings: 300 nM β-CCM; not shown
T1 construct: expressed in transfected cells; host or cells: Xenopus laevis oocytes, cRNA injection
Description: Freshly prepared oocytes of maturation stage VI were bought from Ecocyte Bioscience (Castrop-Rauxel, Germany) and, after overnight delivery, plated into 96-well plates (Greiner no. 651101) for microinjection on a ROBOOCYTE R16 system (Multichannel Systems MCS GmbH, Reutlingen, Germany). Each oocyte was injected with roughly 50 nL of RNA solution. The solution for expressing receptors composed of the human α1, β2 and γ2 subunits contained 3 pg/nL of α1 and β2 RNA and 15 pg/nL of γ2 RNA. The solution for expressing human α2β3γ2 receptors contained 2.5 pg/nL of α2 and β3 RNA, 5 pg/nL of γ2 RNA and 10 pg/nL of GABARAP RNA. The solution for expressing human α3β3γ2 receptors contained 1.3 pg/nL of α3 and β3 RNA and 6.5 pg/nL of γ2 RNA. The solution for expressing human α5β3γ2 receptors contained 1.3 pg/nL of α5 and β3 RNA and 13 pg/nL of γ2 RNA. GABARAP was added to the α2β3γ2 subunit mixture since the expression of γ2 would be low otherwise, as indicated by a weak effect of β-CCM[60]. After the microinjection the oocytes were kept at 20 °C temperature until the electrophysiological experiment. Experiments were done 3 to 5 days later on the ROBOOCYTE instrument which employs the two-microelectrode voltage-clamp technique for membrane voltage control and current measurement. […] During current recording and compound testing the cell membrane was constantly clamped to − 80 mV. Current signals were recorded and stored on a PC-type computer using the ROBOOCYTE software.
as §1, with “compounds. […]” for “compounds.”

human GABAA α5β3γ2, sequence (P31644 32-462): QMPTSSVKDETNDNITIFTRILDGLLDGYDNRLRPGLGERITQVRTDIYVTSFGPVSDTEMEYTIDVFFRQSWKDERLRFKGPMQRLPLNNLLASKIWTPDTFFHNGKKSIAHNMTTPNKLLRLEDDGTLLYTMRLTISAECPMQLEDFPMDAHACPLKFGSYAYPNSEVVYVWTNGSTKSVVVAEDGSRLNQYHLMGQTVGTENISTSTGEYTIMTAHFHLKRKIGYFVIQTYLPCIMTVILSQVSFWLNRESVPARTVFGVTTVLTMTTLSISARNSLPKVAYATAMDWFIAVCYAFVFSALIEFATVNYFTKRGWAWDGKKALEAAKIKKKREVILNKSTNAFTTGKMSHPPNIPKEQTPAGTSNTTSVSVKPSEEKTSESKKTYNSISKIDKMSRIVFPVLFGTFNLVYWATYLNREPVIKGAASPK
human GABAA α5β3γ2, sequence (P28472 26-473 partner): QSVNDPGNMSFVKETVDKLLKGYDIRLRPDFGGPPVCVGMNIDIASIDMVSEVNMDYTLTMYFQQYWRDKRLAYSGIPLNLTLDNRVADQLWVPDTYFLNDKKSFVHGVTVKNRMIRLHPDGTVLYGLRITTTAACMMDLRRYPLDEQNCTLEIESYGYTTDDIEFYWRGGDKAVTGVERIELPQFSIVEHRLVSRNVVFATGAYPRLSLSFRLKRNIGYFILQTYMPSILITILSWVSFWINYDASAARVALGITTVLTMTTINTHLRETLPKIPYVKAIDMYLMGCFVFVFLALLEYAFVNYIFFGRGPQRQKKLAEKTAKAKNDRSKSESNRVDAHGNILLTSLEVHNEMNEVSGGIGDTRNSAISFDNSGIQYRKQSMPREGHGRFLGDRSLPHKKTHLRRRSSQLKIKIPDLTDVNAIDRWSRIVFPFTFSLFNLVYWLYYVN
human GABAA α5β3γ2, sequence (P18507 40-475): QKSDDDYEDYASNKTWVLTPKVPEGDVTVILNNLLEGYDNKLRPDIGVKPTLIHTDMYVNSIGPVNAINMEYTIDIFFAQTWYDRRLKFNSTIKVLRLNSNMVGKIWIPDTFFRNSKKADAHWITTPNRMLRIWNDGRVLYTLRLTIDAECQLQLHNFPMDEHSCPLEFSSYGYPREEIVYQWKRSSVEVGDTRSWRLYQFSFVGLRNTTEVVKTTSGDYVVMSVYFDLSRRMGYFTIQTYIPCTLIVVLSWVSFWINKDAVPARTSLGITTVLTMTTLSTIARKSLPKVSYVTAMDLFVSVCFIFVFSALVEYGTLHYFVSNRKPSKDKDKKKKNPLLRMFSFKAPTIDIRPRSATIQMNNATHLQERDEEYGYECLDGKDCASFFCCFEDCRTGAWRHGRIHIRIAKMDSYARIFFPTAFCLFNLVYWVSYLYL

In the case of CCOC(=O)c1ncn2c1CN(C)C(=O)c1cc(F)ccc1-2 [Flumazenil, reference compound], the “enhancement of the GABA-induced current” value ([1]; 30 and 1000 nM, concentration-dependent) is reported as “up to 28%”.

In the case of CN1Cc2c(C(=O)OC(C)(C)C)ncn2-c2ccsc2C1=O [Ro 19-4603, reference compound], the “time in the social compartment” value ([2]; p < 0.001) is reported as “significantly decreased the time in the social compartment” and the “time in the hidden area” value ([2]; p < 0.05) is reported as “increased the time in the hidden area”.

In the case of CN1C(=O)CN=C(c2ccccc2)c2cc(Cl)ccc21 [Diazepam, reference compound], the “latency and pathlength to find the platform across six trials” value [3] is reported as “significantly increased the latency and pathlength”, the swim speed [3] is reported as “small but significant increase in swim speed” and the “probe trial, learning of the new platform position” value ([3]; 30 min before test) is reported as “significantly disrupted learning of the new platform position”.

For CCOC(=O)c1ncn2c1[C@@H]1CCCN1C(=O)c1cc(OC)ccc1-2 [L-655,708], the Ki ([4]; ref Atack et al., 2006) is listed as 0.031 µM, the Ki ([5]; Table S4a, ref Atack et al., 2006, read-out: Ki α5β3γ2) is listed as 0.001 µM and the Ki ([5]; discussion, no reference given, read-out: Ki at the GABAA-α5 receptor subtype) is listed as roughly 0.001 µM. For the same compound, the Ki ([6]; ref Atack et al., 2006) was 0.048 µM and the Ki ([7]; ref Atack et al., 2006) was 0.07 µM.

In the case of COCc1ncn2c1CN(C)C(=O)c1cc(Cl)ccc1-2 [PWZ-029], the Ki ([4]; ref Savić et al., 2008) is given as greater than 0.3 µM, the Ki ([5]; Table S4a, ref Savić et al., 2008, read-out: Ki α5β3γ2) is given as 0.03 µM and the Ki ([6]; ref Savić et al., 2008) is given as greater than 0.3 µM. For the same compound, the Ki ([7]; ref Savić et al., 2008) was 0.92 µM.

In the case of CNC(=O)c1cc2c(cn1)[nH]c1ccccc12 [FG7142, N-Methyl-9H-pyrido[5,4-b]indole-3-carboxamide, reference compound], the “number of rats showing tonic convulsions” value [8] is reported as “increased the number of rats showing tonic convulsions”.

For COC(=O)c1cc2c(cn1)[nH]c1ccccc12 [β-CCM, methyl beta-carboline-3-carboxylate, reference compound], the “inhibition of GABA response” value [9] was 42% and the “reduction of the GABA-evoked current” value ([1]; maximally effective concentration, 1 µM β-CCM, data not shown) was 52%.
